Reference: patent US4535081A, “Antiallergic and antiulcer 1-oxo-1H-thiazolo[3,2-a]pyrimidine-2-carboxamides and intermediates therefor” (Pfizer Inc., priority 1983, dated 1985)
Where two headings read alike, the source gives them in different places.

Columns and labels:
[1] = system: IgG (hyperimmune antiserum) PCA reaction; test: Oral activity in PCA test, IgG; type: in vivo; conditions: Rattus norvegicus
Procedure: (§1) The antiallergy property of the compounds of this invention is evaluated by the passive cutaneous anaphylaxis (PCA) test (Ovary, J. Immun., 81, 355, 1958). In the PCA test, normal animals are injected intradermally (i.d.) with antibodies contained in serum obtained from actively sensitized animals. The animals are then challenged intravenously with antigen mixed with a dye such as Evans' Blue. The increased capillary permeability caused by the antigen-antibody reaction causes the dye to leak from the site of the antibody injection. The test animals are then asphyxiated and the intensity of the reaction determined by measuring the diameter and intensity of the blue coloration on the inner surface of the animals' skin.
(§2) The ability of agents to interfere with PCA reactions is measured in male Charles River Wistar rats, 170-210 g. Reaginic antiserum, rich in IgE antibodies, is prepared according to Petillo et al., Int. Arch. Allergy, 44, 309 (1973). Hyperimmune antiserum rich in IgG antibodies to hen egg albumin is prepared according to Orange et al., J. Exptl. Med., 127, 767 (1968). Forty-eight hours prior to antigen challenge, the reaginic antiserum is injected intradermally (i.d.) into the shaved skin of a normal rat's back; 5 hours before challenge the hyperimmune antisera is similarly injected. At a third site 60 mcg. histamine dihydrochloride and 0.5 mcg. serotonin creatinine sulfate are injected i.d. just prior to antigen challenge as a check for antihistaminic, antiserotonin and unspecific types of blockage; the compounds of the instant invention or saline are then administered i.v. and immediately followed by the challenge of 5 mg. egg albumen and 2.5 mg. Evans' Blue dye in saline. In the case of oral administration Evans' Blue dye and egg albumin are given 5 minutes after administration of the drug. Thirty minutes later the animals are asphyxiated using chloroform and the skin of the back removed and reversed for observation. A score is assigned each injection site equal to the product of the diameter of the site in mm. and a grade of 0.1, 0.5, 1, 2, 3 or 4 proportional to intensity of dye coloration. The scores for a given injection site are summed for each group of five animals and compared to the saline treated controls. The difference is expressed as percent blockage due to the compound employed.
Compounds representative of those of the present invention are tested for antiallergy activity by the above-described procedure and the resulting activities are reported as the degree (%) of protection.

[2] = system: IgE (reaginic antiserum) PCA reaction; test: Oral activity in PCA test, IgE; type: in vivo, rat; conditions: Rattus norvegicus, IgE, oral
Procedure: as §1
The PCA test is a measure of the anti-allergic (especially anti-asthmatic) activity of a compound. Compounds which inhibit a positive PCA test induced by the rat immunochemical counterpart of human immunoglobulin E (IgE), or reagin, are considered to have anti-allergic activity (C. Mota, Ann. N.Y. Acad. Sci., 103, 264 1963). (Reagin is primarily immunoglobulin E [IgE] and is the principal immunoglobulin responsible for allergic asthma, anaphylaxis, hay fever, food sensitivities and certain manifestations of drug sensitivities, although recent evidence ascribes to the IgG class of antibodies a significant role in the mediation of allergic diseases). Such compounds when administered to a sensitized subject, human or animal, prior to the time when the subject comes into contact with antigens or substances to which it is allergic, will prevent the allergic reaction which would otherwise occur. They, therefore, provide a method for the prophylactic treatment of allergy or anaphylactic reactions of a reagin mediated nature.
To put it another way, such compounds block the release of mediators resulting from the antigen-antibody (allergic) reaction as illustrated in the PCA test using rat homocytotropic antibody--a known correlate of human reaginic antibody. Inhibition of reaginic antigen-antibody reactions in rats, the test animal of the PCA test, is regarded as representative of inhibition of human reaginic antigen-antibody reactions which occur during allergic episodes.
as §2, with “employed. […]” for “employed.”

[3] = Table II acids, read-out: Oral Activity (% of Protection) of Acids in the PCA Test, IgG
[4] = Table II acids, read-out: Oral Activity (% of Protection) of Acids in the PCA Test, IgE
[5] = Table I amides, read-out: Oral Activity (% of Protection) in the PCA Test, IgG
[6] = Table I amides, read-out: Oral Activity (% of Protection) in the PCA Test, IgE

| Compound | inhibition in vivo at 30 mg/kg [1, 3] [%] | inhibition in vivo at 30 mg/kg [2, 4] [%] | inhibition in vivo at 30 mg/kg [1, 5] [%] | inhibition in vivo at 30 mg/kg [2, 6] [%] | also measured |
| --- | --- | --- | --- | --- | --- |
| CCC(C)c1csc2ncc(C(=O)O)c(=O)n12 (centres unmarked) [1-Oxo-1H-7-(2-butyl)thiazolo[3,2-a]pyrimidine-2-carboxylic Acid] | 8 | 1 | – | – | – |
| O=C(Nc1nnn[nH]1)c1cnc2sc3c(n2c1=O)CCC3 [Formula I: (CH2)3, N-(5-Tetrazolyl)-1-oxo-1H-cyclopentenothiazolo[3,2-a]pyrimidine-2-carboxamide] | – | – | – | – | inhibition in vivo at 1 mg/kg ([1]; 1 mg./kg., read-out: Oral Activity (% of Protection) in the PCA Test, IgG): 43%; inhibition in vivo at 1 mg/kg ([2]; 1 mg./kg., read-out: Oral Activity (% of Protection) in the PCA Test, IgE): 46% |
| O=C(Nc1nnn[nH]1)c1cnc2sc3c(n2c1=O)CCCCC3 [Formula I: (CH2)5, N-(5-Tetrazolyl)-1-oxo-1H cycloheptenothiazolo[3,2-a]pyrimidine-2-carboxamide] | – | – | 38 | 25 | – |
| CCc1sc2ncc(C(=O)Nc3nnn[nH]3)c(=O)n2c1C [Formula I: R1=C2H5, R2=CH3, N-(5-Tetrazolyl)-1-oxo-1H-6-ethyl-7-methylthiazolo[3,2-a]pyrimidine-2-carboxamide] | – | – | 28 | 29 | – |
| CCc1c(C)sc2ncc(C(=O)Nc3nnn[nH]3)c(=O)n12 [Formula I: R1=CH3, R2=C2H5, N-(5-Tetrazolyl)-1-oxo-1H-6-methyl-7-ethylthiazolo[3,2-a]pyrimidine-2-carboxamide] | – | – | 57 | 75 | – |
| CCc1csc2ncc(C(=O)Nc3nnn[nH]3)c(=O)n12 [Formula I: R1=H, R2=C2H5, N-(5-Tetrazolyl)-1-oxo-1H-7-ethylthiazolo[3,2-a]pyrimidine-2-carboxamide] | – | – | 44 | 70 | – |
| CC(C)(C)c1csc2ncc(C(=O)Nc3nnn[nH]3)c(=O)n12 [Formula I: R1=H, R2=C(CH3)3, N-(5-Tetrazolyl)-1-oxo-1H-7-(2-methyl-2-propyl)thiazolo[3,2-a]pyrimidine-2-carboxamide] | – | – | 20 | 37 | – |
| CC(C)c1csc2ncc(C(=O)Nc3nnn[nH]3)c(=O)n12 [Formula I: R1=H, R2=CH(CH3)2, N-(5-Tetrazolyl)-1-oxo-1H-7-isopropylthiazolo[3,2-a]pyrimidine-2-carboxamide] | – | – | 53 | 72 | – |
| O=C(Nc1nnn[nH]1)c1cnc2sccn2c1=O [Formula I: R1=H, R2=H] | – | – | 46 | 50 | – |
| O=C(O)c1cnc2sc3c(n2c1=O)CCC3 [Formula II: (CH2)3, 1-Oxo-1H-cyclopentenothiazolo[3,2-a]pyrimidine-2-carboxylic Acid] | 0 | 0 | – | – | – |
| O=C(O)c1cnc2sc3c(n2c1=O)CCCCC3 [Formula II: (CH2)5, 1-Oxo-1H-cycloheptenothiazolo[3,2-a]pyrimidine-2-carboxylic Acid] | 44 | 37 | – | – | – |
| O=C(O)c1cnc2sc3c(n2c1=O)CCCCCC3 [Formula II: (CH2)6, 1-Oxo-1H-cyclooctenothiazolo[3,2-a]pyrimidine-2-carboxylic Acid] | 45 | 68 | – | – | inhibition in vivo at 10 mg/kg ([1]; 10 mg./kg., Table II acids, read-out: Oral Activity (% of Protection) of Acids in the PCA Test, IgG): 15%; inhibition in vivo at 10 mg/kg ([2]; 10 mg./kg., Table II acids, read-out: Oral Activity (% of Protection) of Acids in the PCA Test, IgE): 36% |
| CC1(C)CCc2c(sc3ncc(C(=O)O)c(=O)n23)C1 [Formula II: CH2C(CH3)2CH2CH2, 1-Oxo-1H-7,7-dimethylcyclohexenothiazolo[3,2-a]pyrimidine-2-carboxylic Acid] | 6 | 13 | – | – | – |
| O=C(O)c1cnc2sc3c(n2c1=O)CCC(c1ccccc1)C3 (centres unmarked) [Formula II: CH2CH(C5H6)CH2CH2, 1-oxo-1H-7-phenylcyclohexenothiazolo[3,2-a]pyrimidine-2-carboxylic Acid] | 5 | 15 | – | – | – |
| CC1CCc2c(sc3ncc(C(=O)O)c(=O)n23)C1 (centres unmarked) [Formula II: CH2CH(CH3)CH2CH2, 1-Oxo-1H-7-methylcyclohexenothiazolo[3,2-a]pyrimidine-2-carboxylic Acid] | 21 | 31 | – | – | – |
